Source: US10144715B2, “Piperazine derivatives as liver X receptor modulators” (priority 2014, dated 2018)
Where two headings read alike, the source gives them in different places.

Columns and labels:
[1] = target: Gal4 DNA binding domain fused to the LBD of LXRβ in HEK293 cells (Homo sapiens (Human), UniProt P55055); experiment: cell-based
[2] = target: Gal4 DNA binding domain fused to the LBD of LXRα in HEK293 cells (Homo sapiens (Human), UniProt Q13133); experiment: LXR luciferase transcriptional reporter gene assay, agonist mode, LXRα; type: cell-based; details: for EC50: read-out: Cell LXRα EC50
LXR β LBD protein = LXR β LBD protein (Homo sapiens (Human), UniProt P55055); experiment: biochemical; type: binding
LXR α LBD protein = LXR α LBD protein (Homo sapiens (Human), UniProt Q13133); experiment: LXR α radioligand binding assay (SPA, competition with [3H]TO901317); details: read-out: LXRα Binding Ki
[3] = Biological Test Example 2, agonist mode
[4] = Biological Test Example 1, read-out: LXRβ Binding Ki
[5] = Biological Test Example 2, agonist mode, read-out: Cell LXRβ EC50

LXR β LBD protein, sequence (P55055 222-460 limits assumed): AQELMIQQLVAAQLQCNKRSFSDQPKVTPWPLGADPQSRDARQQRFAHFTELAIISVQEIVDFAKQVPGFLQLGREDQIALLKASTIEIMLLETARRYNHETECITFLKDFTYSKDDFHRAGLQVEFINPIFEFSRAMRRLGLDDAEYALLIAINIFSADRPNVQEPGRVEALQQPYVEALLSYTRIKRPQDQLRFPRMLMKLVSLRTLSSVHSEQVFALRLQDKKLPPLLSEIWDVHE
Gal4 DNA binding domain fused to the LBD of LXRβ in HEK293 cells, sequence (P55055 222-460 limits assumed): as above
LXR α LBD protein, sequence (Q13133 209-447): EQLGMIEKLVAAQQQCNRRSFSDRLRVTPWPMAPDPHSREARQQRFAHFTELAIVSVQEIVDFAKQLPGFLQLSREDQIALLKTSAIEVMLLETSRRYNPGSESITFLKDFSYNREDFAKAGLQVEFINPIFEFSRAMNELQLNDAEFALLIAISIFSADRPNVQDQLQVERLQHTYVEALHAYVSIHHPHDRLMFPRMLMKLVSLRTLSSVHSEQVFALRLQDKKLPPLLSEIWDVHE
Gal4 DNA binding domain fused to the LBD of LXRα in HEK293 cells, sequence (Q13133 209-447): as above

Compound	EC50 [1] [nM]	Cell LXRβ efficacy ([1]; agonist mode)	Cell LXRα efficacy [2]	EC50 ([2]; agonist mode) [nM]	Ki (LXR β LBD protein) [nM]	Ki (LXR α LBD protein) [nM]	EC50 [2] [nM]	Ki (LXR β LBD protein; read-out: LXRβ Binding Ki) [nM]	Cell LXRβ efficacy [1]	Cell LXRβ efficacy [1, 3]	EC50 [2, 3] [nM]	Ki (LXR β LBD protein; [4]) [nM]	EC50 [1, 5] [nM]
CO[C@@H](C)[C@@H]1CN(c2ccc(CO)c(S(C)(=O)=O)c2)CCN1c1ncc(CO)c(C(F)(F)F)n1 (single isomer, unassigned) [11-4]	347	347 (24) %	3106 (30) %	3110	159	1890							
CO[C@H](C)[C@@H]1CN(c2ccc(CO)c(S(C)(=O)=O)c2)CCN1c1ncc(CO)c(C(F)(F)F)n1 (single isomer, unassigned) [11-5]	363	363 (16) %	4667 (21) %	4670	414	> 3330							
CC(C)[C@@H]1CN(c2ccc(C#N)c(S(C)(=O)=O)c2)CCN1c1ncc([C@@H](C)O)c(C(F)(F)F)n1 (single isomer, unassigned) [12-4]	652	652 (50) %	4457 (58) %			1450	4460	111					
CS(=O)(=O)c1cccc(N2CCN(Cc3ccc(C(F)(F)F)c(Br)c3)C(c3ccccc3)C2)c1 (stereo not drawn) [46-37, 1-(3-bromo-4-(trifluoromethyl)benzyl)-4-(3-(methylsulfonyl)phenyl)-2-phenylpiperazine]	1190	1194 (55) %	3451 (52) %	3450				30					
CS(=O)(=O)c1cccc(N2CCN(CC3CCN(CC(F)(F)F)CC3)[C@H](c3ccccc3Cl)C2)c1 [48-56, (R)-2-(2-chlorophenyl)-4-(3-(methylsulfonyl)phenyl)-1-((1-(2,2,2-trifluoroethyl)piperidin-4-yl)methyl)piperazine]	4010						> 20000	1670	4014 (16) %				
CS(=O)(=O)c1cccc(N2CCN(CC3(F)CCN(CC(F)(F)F)CC3)[C@@H](c3ccc(F)cc3)C2)c1 [48-57, (S)-1-((4-fluoro-1-(2,2,2-trifluoroethyl)piperidin-4-yl)methyl)-2-(4-fluorophenyl)-4-(3-(methylsulfonyl)phenyl)piperazine]	1270		4500 (37) %							1272 (13) %	4500	492	
CS(=O)(=O)c1cccc(N2CCN(C[C@H]3CC[C@]4(CC3)CC4(F)F)[C@H](c3ccccc3)C2)c1 [48-72, (R)-1-(((3R,6r)-1,1-difluorospiro[2.5]octan-6-yl)methyl)-4-(3-(methylsulfonyl)phenyl)-2-phenylpiperazine]			7222 (11) %				7220			31%		825	2880
CS(=O)(=O)c1cccc(N2CCN(C[C@@H]3C[C@H]4CC[C@@H](C3)N4CC(F)(F)F)[C@H](c3ccccc3)C2)c1 [48-75, (1R,3s,5S)-3-(((R)-4-(3-(methylsulfonyl)phenyl)-2-phenylpiperazin-1-yl)methyl)-8-(2,2,2-trifluoroethyl)-8-azabicyclo[3.2.1]octane]							> 20000			21%		940	2400
CS(=O)(=O)c1cccc(N2CCN(C[C@@H]3C[C@H]4CC[C@@H](C3)N4CC(F)(F)F)[C@@H](c3ccccc3)C2)c1 [48-76, (1R,3s,5S)-3-(((S)-4-(3-(methylsulfonyl)phenyl)-2-phenylpiperazin-1-yl)methyl)-8-(2,2,2-trifluoroethyl)-8-azabicyclo[3.2.1]octane]			1394 (54) %				1390			27%		67	374
Cc1nc(N2CCN(c3ccc(F)c(S(C)(=O)=O)c3)C[C@H]2C(C)C)ncc1C(F)(F)F [Cpd No 37-1, (R)-2-(4-(4-fluoro-3-(methylsulfonyl)phenyl)-2-isopropylpiperazin-1-yl)-4-methyl-5-(trifluoromethyl)pyrimidine]	41		262 (91) %				262	3	41 (81) %				
